Experimental data: patent US12391660B2, “Heteroaromatic acetamide derivative, and preparation and use thereof” (Hangzhou Westan Pharmaceutical Technology Co., Ltd, priority 2019, dated 2025)

Target: human TRPC6 (Homo sapiens (Human), UniProt Q9Y210)
Test: Inhibitory activity on human TRPC6 by conventional patch clamp assay
Format: cell-based
Settings: HEK293 human TRPC6, read-out: TRPC6 Inhibition rate (5 μM)
Experimental: 3. Inhibitory Activity on Human TRPC6 by Conventional Patch Clamp Assay
In order to test the selectivity of the compounds in TRPA1 inhibition, a conventional patch clamp method was used to further measure the inhibitory activity of compounds on TRPC6. The principle and procedures of the conventional patch clamp assay could be found in the literature report of Ambrus et al [Ambrus et al. J Cell and Mol Med 2015, 19 (12):2771-9].
Evaluation of TRPC6 inhibitory activity of compounds was conducted using the HEK293 recombinant cell strain (Creative Biogene, NY) stably expressing human TRPC6. Cells were cultured in a DMEM/F12 (3:1, Thermo Fisher Scientific) medium (containing 5% calf serum, 2 mM glutamine and 20 mM HEPES) in an incubator at 37° C. and air humidity containing 5% CO2.
During the experiment, the adherent cells were placed in a recording room under the inverted microscope. All experiments were performed at room temperature. Each cell itself was used as a control thereof.
Test compounds at a final concentration were all prepared on the testing day and then dissolved in the extracellular fluid. The extracellular fluid was (mM): NaCl, 137; KCl, 4; CaCl2, 1.8; MgCl2, 1; HEPES, 10; glucose 10; pH 7.4 (NaOH titration). Low-Ca extracellular fluid was (mM): NaCl, 138.3; KCl, 4; CaCl2, 0.5; MgCl2, 1; HEPES, 10; glucose 10; pH 7.4 (NaOH titration). […]

Sequence of human TRPC6 (Q9Y210 whole entry): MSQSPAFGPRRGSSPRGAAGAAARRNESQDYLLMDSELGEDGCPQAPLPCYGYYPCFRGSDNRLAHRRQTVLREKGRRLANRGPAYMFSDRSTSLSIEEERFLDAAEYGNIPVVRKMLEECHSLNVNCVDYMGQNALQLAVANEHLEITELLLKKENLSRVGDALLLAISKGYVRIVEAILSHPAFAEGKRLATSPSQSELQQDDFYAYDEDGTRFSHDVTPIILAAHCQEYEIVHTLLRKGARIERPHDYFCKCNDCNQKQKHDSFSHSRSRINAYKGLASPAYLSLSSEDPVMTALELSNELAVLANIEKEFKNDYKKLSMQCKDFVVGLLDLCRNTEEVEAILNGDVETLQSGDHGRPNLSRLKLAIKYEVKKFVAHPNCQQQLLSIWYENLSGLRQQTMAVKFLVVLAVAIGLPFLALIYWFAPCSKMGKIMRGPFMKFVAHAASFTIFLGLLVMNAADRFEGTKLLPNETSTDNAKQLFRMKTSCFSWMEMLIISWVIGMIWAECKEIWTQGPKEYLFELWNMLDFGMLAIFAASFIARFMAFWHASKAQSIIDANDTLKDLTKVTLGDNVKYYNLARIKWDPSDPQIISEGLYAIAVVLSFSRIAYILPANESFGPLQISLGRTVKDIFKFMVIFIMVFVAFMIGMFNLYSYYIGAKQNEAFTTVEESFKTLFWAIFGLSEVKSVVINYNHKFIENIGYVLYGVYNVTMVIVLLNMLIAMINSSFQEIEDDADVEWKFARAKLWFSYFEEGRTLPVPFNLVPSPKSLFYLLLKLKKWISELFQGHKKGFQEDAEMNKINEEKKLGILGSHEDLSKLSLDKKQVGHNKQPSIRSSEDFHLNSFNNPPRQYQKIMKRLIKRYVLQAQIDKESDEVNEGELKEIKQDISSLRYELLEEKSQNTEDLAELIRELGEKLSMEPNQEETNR

SMILES | inhibition at 5 µM [%]
N#Cc1ccc(NC2(C(=O)N3CCN(c4ccc(C(F)(F)F)cc4)CC3)CCCC2)cc1 [Compound 1, 4-((1-(4-(4-(trifluoromethyl)phenyl)piperazine-1-carbonyl)cyclopentyl)amino)benzonitrile] | -60
CC(C)(C)C1CCN(C(=O)C2(Nc3ccc(C#N)cc3)CCCC2)CC1 [Compound 31, 4-((1-(4-(tert-butyl)piperidine-1-carbonyl)cyclopentyl)amino)benzonitrile] | 26
